Assay results taken from paper PMC10466331, “Fluorescence polarisation activity-based protein profiling for the identification of deoxynojirimycin-type inhibitors selective for lysosomal retaining alpha- and beta-glucosidases” (Chemical Science, 2023).
Read-outs that look alike come from different tables or passages of the source.

Assays:
Type in all cases: biochemical
[1] = molecular target: T1, recombinant human GAA (rhGAA, Myozyme) (Homo sapiens, UniProt P10253); test: competitive FluoPol-ABPP assay on rhGAA with TAMRA-ABP II; details: library screen, 5 μM inhibitor, 25 nM ABP II;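 also: fluorescence polarization read at 540 nm excitation and 590 nm emission, background-corrected, normalized to uninhibited probe labelling as 100% and excess cyclosulfate as 0%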
T1 construct: purchased Genzyme

[2] = molecular target: T2, human recombinant lysosomal α-glucosidase GAA (Myozyme) (Homo sapiens, UniProt P10253); test: fluorogenic substrate (4MU-α-D-glucopyranoside) assay on rhGAA; details: Table S2, 4-MU alpha glucoside substrate, read-out: IC50 on rhGAA
T2 construct: purchased Genzyme

[3] = molecular target: T3, ER α-glucosidase GANAB (from Pompe disease Fibroblast lysates) (Homo sapiens, UniProt Q14697); test: fluorogenic substrate (4MU-α-D-glucopyranoside) assay on GANAB in Pompe fibroblast homogenates; details: Table S2, 4-MU alpha glucoside substrate, read-out: IC50 on GANAB;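 also: inhibitor preincubated 30 min at 37 °C with homogenate, then GANAB activity read after 2 h with 3.0 mM fluorogenic substrate in McIlvaine buffer containing 0.1% BSA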
T3 construct: Cellular homogenates of Pompe fibroblasts (1 mg mL^−1) were used as protein source for GANAB; endogenous in cells; host or cells: Pompe disease fibroblasts (homogenate)
T3 sequence (Q14697 29-944): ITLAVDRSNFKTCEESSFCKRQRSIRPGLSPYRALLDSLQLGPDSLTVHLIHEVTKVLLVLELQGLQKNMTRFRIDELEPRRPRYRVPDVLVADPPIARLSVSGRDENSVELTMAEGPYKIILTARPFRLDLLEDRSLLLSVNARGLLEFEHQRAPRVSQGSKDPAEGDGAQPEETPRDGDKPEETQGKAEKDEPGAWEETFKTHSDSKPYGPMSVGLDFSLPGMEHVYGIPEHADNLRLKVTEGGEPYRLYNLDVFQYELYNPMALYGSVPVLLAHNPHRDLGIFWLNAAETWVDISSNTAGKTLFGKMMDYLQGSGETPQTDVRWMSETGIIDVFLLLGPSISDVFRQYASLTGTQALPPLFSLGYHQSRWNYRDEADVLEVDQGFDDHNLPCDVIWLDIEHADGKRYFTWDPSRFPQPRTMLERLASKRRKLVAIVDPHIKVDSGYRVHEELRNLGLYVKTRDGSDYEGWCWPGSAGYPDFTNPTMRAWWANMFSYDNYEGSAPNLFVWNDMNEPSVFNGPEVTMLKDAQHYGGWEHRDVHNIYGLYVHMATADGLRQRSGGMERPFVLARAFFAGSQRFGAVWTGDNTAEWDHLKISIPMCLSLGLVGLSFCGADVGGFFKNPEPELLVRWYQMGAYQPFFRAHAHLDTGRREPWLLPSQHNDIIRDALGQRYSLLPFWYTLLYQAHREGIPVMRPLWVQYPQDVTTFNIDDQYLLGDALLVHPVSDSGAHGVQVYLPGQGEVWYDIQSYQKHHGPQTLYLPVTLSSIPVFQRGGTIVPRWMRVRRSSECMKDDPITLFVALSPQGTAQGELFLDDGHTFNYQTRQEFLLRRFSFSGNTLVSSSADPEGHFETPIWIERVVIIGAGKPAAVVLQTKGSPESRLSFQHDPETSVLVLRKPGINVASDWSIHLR
T3 sequence (P14314 15-528 partner): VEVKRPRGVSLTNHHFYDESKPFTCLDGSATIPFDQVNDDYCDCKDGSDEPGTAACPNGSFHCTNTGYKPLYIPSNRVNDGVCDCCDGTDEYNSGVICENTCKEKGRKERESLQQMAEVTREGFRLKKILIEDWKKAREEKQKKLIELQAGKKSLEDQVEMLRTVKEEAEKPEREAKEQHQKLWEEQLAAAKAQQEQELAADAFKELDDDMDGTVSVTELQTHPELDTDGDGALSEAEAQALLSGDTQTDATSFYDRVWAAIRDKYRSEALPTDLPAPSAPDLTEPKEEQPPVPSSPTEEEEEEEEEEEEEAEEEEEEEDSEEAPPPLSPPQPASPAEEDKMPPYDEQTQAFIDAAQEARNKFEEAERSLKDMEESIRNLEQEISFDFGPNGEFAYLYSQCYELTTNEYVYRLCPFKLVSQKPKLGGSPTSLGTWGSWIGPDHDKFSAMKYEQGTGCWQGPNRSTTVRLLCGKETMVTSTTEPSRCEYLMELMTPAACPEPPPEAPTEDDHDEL

SMILES	GAA FP% (residual FP-signal) [1] [%]	IC50 [2] [nM]	IC50 [3] [nM]	further results
OC[C@@H]1[C@@H](O)[C@H](O)[C@@H](O)CN1CCCCCOCCC12CC3CC(CC(C3)C1)C2 [#ID 170]	4.1	430	1600	–
OC[C@@H]1[C@@H](O)[C@H](O)[C@@H](O)CN1CCCCCOCC(COCCCCCN1C[C@H](O)[C@@H](O)[C@H](O)[C@H]1CO)C12CC3CC(CC(C3)C1)C2 [#ID 197]	0.4	220	1300	–
CCCCCCCOCCCCCN1C[C@H](O)[C@@H](O)[C@H](O)[C@H]1CO [#ID 276]	–	–	–	GAA FP% (residual FP-signal) ([1]; listed as 276): 0.6%; IC50 ([2]; listed as 276): 72 nM; IC50 ([3]; listed as 276): 1810 nM
CCCCCOCCCCCN1C[C@H](O)[C@@H](O)[C@H](O)[C@H]1CO [#ID 281]	–	–	–	GAA FP% (residual FP-signal) ([1]; listed as 281): 4.2%; IC50 ([2]; listed as 281): 540 nM; IC50 ([3]; listed as 281): 3700 nM
CCCCOCCCCCN1C[C@H](O)[C@@H](O)[C@H](O)[C@H]1CO [#ID 283]	–	–	–	GAA FP% (residual FP-signal) ([1]; listed as 283): 4.4%; IC50 ([2]; listed as 283): 720 nM; IC50 ([3]; listed as 283): 4900 nM
CCCCCCCCN1C[C@H](O)[C@@H](O)[C@H](O)[C@H]1CO [#ID 286]	–	–	–	GAA FP% (residual FP-signal) ([1]; listed as 286): 9.1%; IC50 ([2]; listed as 286): 760 nM; IC50 ([3]; listed as 286): 8500 nM
CCCCCCN1C[C@H](O)[C@@H](O)[C@H](O)[C@H]1CO [#ID 293]	–	–	–	GAA FP% (residual FP-signal) ([1]; listed as 293): 17%; IC50 ([2]; listed as 293): 1300 nM; IC50 ([3]; listed as 293): 14000 nM
OC[C@@H]1[C@@H](O)[C@H](O)[C@@H](O)CN1CCCCCOCc1ccc(-c2ccc3c(c2)OCO3)cc1 [#ID 303]	0.1	140	4700	–
OC[C@@H]1[C@@H](O)[C@H](O)[C@@H](O)CN1CCCCCOCc1ccc(-c2cc(C(F)(F)F)cc(C(F)(F)F)c2)cc1 [#ID 308]	1.5	2400	14000	–
N#Cc1cccc(-c2ccc(COCCCCCN3C[C@H](O)[C@@H](O)[C@H](O)[C@H]3CO)cc2)c1 [#ID 310]	2.5	54	1000	–
OC[C@@H]1[C@@H](O)[C@H](O)[C@@H](O)CN1CCCCCOCc1ccc(-c2ccc(F)cc2)cc1 [#ID 311]	0.9	43	1400	–
OC[C@@H]1[C@@H](O)[C@H](O)[C@@H](O)CN1CCCCCOCc1ccc(-c2ccc(Cl)cc2)cc1 [#ID 314]	1.7	93	150	–
OC[C@@H]1[C@@H](O)[C@H](O)[C@@H](O)CN1CCCCCOCc1ccc(-c2ccncc2)cc1 [#ID 316]	1.1	89	1300	–
OC[C@@H]1[C@@H](O)[C@H](O)[C@@H](O)CN1CCCCCOCc1ccc(-c2cccnc2)cc1 [#ID 318]	0.6	85	1700	–
OC[C@@H]1[C@@H](O)[C@H](O)[C@@H](O)CN1CCCCCOCc1ccc(-c2cncnc2)cc1 [#ID 320]	1.0	82	1300	–
OC[C@@H]1[C@@H](O)[C@H](O)[C@@H](O)CN1CCCCCOCc1ccc(-c2ccc(F)nc2)cc1 [#ID 322]	0.8	80	1700	–
OC[C@@H]1[C@@H](O)[C@H](O)[C@@H](O)CN1CCCCCOCc1ccc(-c2ccccc2F)cc1 [#ID 330]	0.8	98	1600	–
COc1ccccc1-c1ccc(COCCCCCN2C[C@H](O)[C@@H](O)[C@H](O)[C@H]2CO)cc1 [#ID 332]	0.8	130	1300	–
OC[C@@H]1[C@@H](O)[C@H](O)[C@@H](O)CN1CCCCCOCc1ccc(-c2ccnc(F)c2)cc1 [#ID 334]	1.5	160	1600	–
OC[C@@H]1[C@@H](O)[C@H](O)[C@@H](O)CN1CCCCCOCc1ccccc1-c1ccccc1 [#ID 339]	0.9	100	620	–

Further compounds by falling IC50 [2], results first:

GAA FP% (residual FP-signal) [1] [%]	IC50 [2] [nM]	IC50 [3] [nM]	SMILES	further results
9.2	42	2100	OC[C@@H]1[C@@H](O)[C@H](O)[C@@H](O)CN1CCCCOCCC12CC3CC(CC(C3)C1)C2 [#ID 203]	–
0.5	37	1600	Cc1ccc(-c2ccc(COCCCCCN3C[C@H](O)[C@@H](O)[C@H](O)[C@H]3CO)cc2)cc1 [#ID 301]	–
0.6	37	1200	OC[C@@H]1[C@@H](O)[C@H](O)[C@@H](O)CN1CCCCCOCc1ccc(-c2ccc3c(c2)OCCCO3)cc1 [#ID 304]	–
0.1	37	420	N#Cc1ccc(-c2ccc(COCCCCCN3C[C@H](O)[C@@H](O)[C@H](O)[C@H]3CO)cc2)cc1 [#ID 309]	–
0.4	37	310	OC[C@@H]1[C@@H](O)[C@H](O)[C@@H](O)CN1CCCCCOCc1ccc(-c2ccccc2)cn1 [#ID 336]	–
2.5	36	1700	OC[C@@H]1[C@@H](O)[C@H](O)[C@@H](O)CN1CCCCCOCc1ccc(-c2ccc(C(F)(F)F)cc2)cc1 [#ID 307]	–
0.9	24	1000	OC[C@@H]1[C@@H](O)[C@H](O)[C@@H](O)CN1CCCCCOCc1ccc(-c2cccc(F)c2)cc1 [#ID 312]	–
0.7	21	1700	N#Cc1ccccc1-c1ccc(COCCCCCN2C[C@H](O)[C@@H](O)[C@H](O)[C@H]2CO)cc1 [#ID 328]	–
0.1	20	1600	Cc1cccc(-c2ccc(COCCCCCN3C[C@H](O)[C@@H](O)[C@H](O)[C@H]3CO)cc2)c1 [#ID 302]	–
0.3	20	380	COc1ccc(-c2ccc(COCCCCCN3C[C@H](O)[C@@H](O)[C@H](O)[C@H]3CO)cc2)cc1 [#ID 305]	–
0.8	15	390	COc1cccc(-c2ccc(COCCCCCN3C[C@H](O)[C@@H](O)[C@H](O)[C@H]3CO)cc2)c1 [#ID 306]	–
0.9	12	570	OC[C@@H]1[C@@H](O)[C@H](O)[C@@H](O)CN1CCCCCOCc1ccc(-c2ccc3c(c2)OCCO3)cc1 [#ID 324]	–
0.8	12	690	Cc1ccccc1-c1ccc(COCCCCCN2C[C@H](O)[C@@H](O)[C@H](O)[C@H]2CO)cc1 [#ID 326]	–
